Columns and labels:
[1] = system: HEK293 cells; assay: NGF-FITC binding by flow cytometry, non-transfected HEK293 cells
Protocol: Background fluorescence of HEK293 cells was non-transfected cells (±c29 or scrambled peptide treatment) treated with 26 nM NGF-FITC. For PC12 cells, the control population was cells that had not been treated with NGF-FITC. Analysis of real-time NGF-FITC receptor binding experiments was performed on 550,000-600,000 cells at 4° C. in serum free NB medium and binding kinetics were calculated from raw data files compressed to 50,000 binding events using FlowJo and MatLab Software. Data was plotted with the use of GraphPad Prism.
Only NGF-FITC preparations that promoted equivalent neurite outgrowth of PC12 cells to that of unlabelled NGF were used in binding experiments. To investigate NGF binding, PC12 or transfected HEK293 cells were serum starved for 4 hours, harvested, washed with Dulbecco's Modified Eagle Medium (DMEM), and counted. When used, c29 or scrambled peptide were added to cultures for the third hour of the serum starvation procedure. […] For binding competition assays, following 1 hour in NGF-FITC, cells were washed with ice-cold PBS containing 0.1% normal bovine serum and incubated on ice with unlabeled NGF at concentrations ranging from 100 pM to 10 μM for 30 minutes, then washed twice in PBS before being analysed on a BD Flow Cytometer FACS Scan (Becton-Dickinson).

[2] = system: pErk1/2 and pAkt; assay: Western blot of pErk1/2 and pAkt in PC12 cell lysates; format: cell-based; conditions: 24 hours
Protocol: In biochemical experiments, PC12 and HEK293 cells were lysed for 20 minutes on ice in lysis buffer as described by (Ceni et al., 2010). Briefly, the lysis buffer contained 10 mM Tris-HCl, 150 mM NaCl, 2 mM EDTA, 1% (v/v) NP-40, 1% (v/v) TX-100, 10% Glycerol, 1 mM PMSF, 1 mM Sodium Orthovanadate, 1 μM BB94, 1% (v/v) Roche protease inhibitor cocktail and pH 8.0 (Ceni et al., 2010).
Immunoprecipitation was performed by the addition of 75 μl (1:2) protein-G sepharose: PBS and incubation end-over-end for 16 hours at 4° C. The immunoprecipitate was washed 4 times with 1 ml of PBS then eluted in 60 μl 2×LDS sample buffer. For immunoblotting, samples were boiled for 5 minutes, separated by SDS-PAGE and transferred onto nitrocellulose membranes, then western blotted using standard protocols (see Example 1 for antibodies used).
The observed functional effects on neurite outgrowth and survival were next correlated with enhanced activation of signal transduction pathways that mediate the trophic effects of TrkA. Lysates of cells treated for 24 hours with NGF alone or in combination with c29 or scrambled peptide were immunoblotted for pErk1/2 (neurite outgrowth), and the serine/threonine protein kinase Akt (survival). […] Total levels of Erk1/2 or Akt were unaffected by any treatment (FIG. 6 A, B).

[3] = 10 ng/ml NGF, relative to 10 ng/ml NGF and scrambled peptide

## KRWNSCKQNKQGANSRPVNQTPPPEGEKL (c29- Fragment of p75ICD) [29 amino acid peptide of the p75NTR juxtamembrane Chopper domain; delivered to cells linked to PTD4 or disulfide-linked carrier]
[1]
  fluorescence of nontransfected cells incubated with peptide and NGF-FITC: only background levels of fluorescence
[2]; [3]
  increase in pAkt: 2 fold
  increase in pErk1/2: 2 fold
[2]; absence of NGF
  pAkt signalling: no effect
  pErk1/2 signalling: no effect

Reference: patent US20150344535A1, “NEUROTROPHIN-TYROSINE KINASE RECEPTOR SIGNALING” (THE UNIVERSITY OF QUEENSLAND, priority 2012, published 2015)
